Measured values: the supplement of paper PMC12076712

What was measured:
Assay in all cases: pIC50, kinobeads binding competition
[1] = target: T1, EPHB6 (UniProt O15197)
T1 sequence (whole entry): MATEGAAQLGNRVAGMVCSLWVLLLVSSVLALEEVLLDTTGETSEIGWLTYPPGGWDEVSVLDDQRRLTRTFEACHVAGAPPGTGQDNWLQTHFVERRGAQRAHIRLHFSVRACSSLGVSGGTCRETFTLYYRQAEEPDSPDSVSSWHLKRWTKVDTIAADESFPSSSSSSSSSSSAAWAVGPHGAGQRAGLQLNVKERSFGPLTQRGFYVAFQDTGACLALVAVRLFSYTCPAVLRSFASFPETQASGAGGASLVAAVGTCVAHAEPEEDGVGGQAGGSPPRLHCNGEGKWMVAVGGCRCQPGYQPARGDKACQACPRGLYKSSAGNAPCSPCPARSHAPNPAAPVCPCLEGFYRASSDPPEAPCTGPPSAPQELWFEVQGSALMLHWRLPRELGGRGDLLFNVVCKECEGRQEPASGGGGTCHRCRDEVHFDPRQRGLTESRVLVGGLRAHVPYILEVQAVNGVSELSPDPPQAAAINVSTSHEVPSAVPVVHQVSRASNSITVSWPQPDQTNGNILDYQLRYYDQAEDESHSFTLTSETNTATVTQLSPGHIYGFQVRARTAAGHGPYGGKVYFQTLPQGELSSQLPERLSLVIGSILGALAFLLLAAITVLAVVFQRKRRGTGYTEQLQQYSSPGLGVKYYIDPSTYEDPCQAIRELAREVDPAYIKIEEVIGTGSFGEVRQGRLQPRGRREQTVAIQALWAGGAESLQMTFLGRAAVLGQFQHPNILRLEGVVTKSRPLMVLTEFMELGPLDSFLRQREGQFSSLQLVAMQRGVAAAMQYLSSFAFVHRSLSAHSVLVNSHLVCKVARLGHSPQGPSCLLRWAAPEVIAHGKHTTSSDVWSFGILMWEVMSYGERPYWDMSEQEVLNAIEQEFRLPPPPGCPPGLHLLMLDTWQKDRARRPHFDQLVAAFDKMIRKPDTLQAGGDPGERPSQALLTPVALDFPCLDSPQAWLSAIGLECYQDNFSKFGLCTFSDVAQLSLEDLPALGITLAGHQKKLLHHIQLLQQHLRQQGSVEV
Summary of the method: (§1)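 Nine compound concentrations were tested, starting at 30 μM in 1:4 steps on live Jurkat cells (60 min, 37 °C, then lysis) or in 1:5 steps on Jurkat lysate or a 1:1:1:1 HEK293/K-562/HepG2/placenta lysate mix (60 min, 4 °C). Kinobeads-bound proteins were digested and quantified with TMT10 LC-MS/MS. pIC50 values are from logistic dose-response fits in the R drc package of fold changes relative to vehicle, from biological duplicates.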

[2] = target: Jak2 (UniProt O60674)
Sequence of Jak2 (O60674 whole entry): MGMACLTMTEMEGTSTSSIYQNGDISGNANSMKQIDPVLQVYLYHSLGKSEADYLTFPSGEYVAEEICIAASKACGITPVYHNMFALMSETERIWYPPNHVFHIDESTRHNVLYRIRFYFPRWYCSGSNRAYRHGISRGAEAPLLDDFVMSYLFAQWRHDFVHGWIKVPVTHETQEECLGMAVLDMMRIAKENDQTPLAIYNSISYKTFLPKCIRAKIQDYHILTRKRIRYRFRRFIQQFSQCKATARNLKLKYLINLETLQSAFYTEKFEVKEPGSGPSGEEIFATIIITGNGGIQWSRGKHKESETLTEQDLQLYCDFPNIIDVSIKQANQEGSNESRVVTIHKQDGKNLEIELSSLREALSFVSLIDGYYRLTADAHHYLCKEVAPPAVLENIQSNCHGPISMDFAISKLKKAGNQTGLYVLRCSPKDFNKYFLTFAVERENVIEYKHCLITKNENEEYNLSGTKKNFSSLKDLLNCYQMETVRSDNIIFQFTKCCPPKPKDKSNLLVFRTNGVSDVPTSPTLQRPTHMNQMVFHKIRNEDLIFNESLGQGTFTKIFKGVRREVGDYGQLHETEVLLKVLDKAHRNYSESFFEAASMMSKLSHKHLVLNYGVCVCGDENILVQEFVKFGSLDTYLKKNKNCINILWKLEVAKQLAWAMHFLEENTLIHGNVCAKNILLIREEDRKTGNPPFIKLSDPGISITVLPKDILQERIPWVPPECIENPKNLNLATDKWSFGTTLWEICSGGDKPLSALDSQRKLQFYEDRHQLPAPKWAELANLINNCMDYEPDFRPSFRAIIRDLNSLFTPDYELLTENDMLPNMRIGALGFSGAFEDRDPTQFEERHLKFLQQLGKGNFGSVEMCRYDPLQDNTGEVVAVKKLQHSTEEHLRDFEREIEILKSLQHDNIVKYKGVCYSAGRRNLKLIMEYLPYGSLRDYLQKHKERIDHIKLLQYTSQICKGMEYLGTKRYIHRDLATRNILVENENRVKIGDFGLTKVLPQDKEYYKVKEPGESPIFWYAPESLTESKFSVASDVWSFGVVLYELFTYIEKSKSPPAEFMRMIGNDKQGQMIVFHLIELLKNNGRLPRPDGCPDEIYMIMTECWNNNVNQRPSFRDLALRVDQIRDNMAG
Summary of the method: as §1

[3] = target: SYK (UniProt P43405)
Summary of the method: as §1

[4] = target: T2, UniProt O14965
T2 sequence (whole entry): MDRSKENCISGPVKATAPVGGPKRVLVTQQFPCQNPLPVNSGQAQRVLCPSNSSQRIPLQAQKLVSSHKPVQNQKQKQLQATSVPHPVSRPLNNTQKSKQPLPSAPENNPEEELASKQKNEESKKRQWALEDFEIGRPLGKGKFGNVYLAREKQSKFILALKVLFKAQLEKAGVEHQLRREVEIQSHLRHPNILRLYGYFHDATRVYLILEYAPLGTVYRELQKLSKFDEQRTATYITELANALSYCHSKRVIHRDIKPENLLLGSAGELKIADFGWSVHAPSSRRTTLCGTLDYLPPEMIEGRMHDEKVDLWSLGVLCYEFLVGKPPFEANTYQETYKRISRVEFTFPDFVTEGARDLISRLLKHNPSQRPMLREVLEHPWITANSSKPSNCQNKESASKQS
Summary of the method: as §1

[5] = target: T3, UniProt O95382; settings: cell material: Lysate mix
T3 sequence (whole entry): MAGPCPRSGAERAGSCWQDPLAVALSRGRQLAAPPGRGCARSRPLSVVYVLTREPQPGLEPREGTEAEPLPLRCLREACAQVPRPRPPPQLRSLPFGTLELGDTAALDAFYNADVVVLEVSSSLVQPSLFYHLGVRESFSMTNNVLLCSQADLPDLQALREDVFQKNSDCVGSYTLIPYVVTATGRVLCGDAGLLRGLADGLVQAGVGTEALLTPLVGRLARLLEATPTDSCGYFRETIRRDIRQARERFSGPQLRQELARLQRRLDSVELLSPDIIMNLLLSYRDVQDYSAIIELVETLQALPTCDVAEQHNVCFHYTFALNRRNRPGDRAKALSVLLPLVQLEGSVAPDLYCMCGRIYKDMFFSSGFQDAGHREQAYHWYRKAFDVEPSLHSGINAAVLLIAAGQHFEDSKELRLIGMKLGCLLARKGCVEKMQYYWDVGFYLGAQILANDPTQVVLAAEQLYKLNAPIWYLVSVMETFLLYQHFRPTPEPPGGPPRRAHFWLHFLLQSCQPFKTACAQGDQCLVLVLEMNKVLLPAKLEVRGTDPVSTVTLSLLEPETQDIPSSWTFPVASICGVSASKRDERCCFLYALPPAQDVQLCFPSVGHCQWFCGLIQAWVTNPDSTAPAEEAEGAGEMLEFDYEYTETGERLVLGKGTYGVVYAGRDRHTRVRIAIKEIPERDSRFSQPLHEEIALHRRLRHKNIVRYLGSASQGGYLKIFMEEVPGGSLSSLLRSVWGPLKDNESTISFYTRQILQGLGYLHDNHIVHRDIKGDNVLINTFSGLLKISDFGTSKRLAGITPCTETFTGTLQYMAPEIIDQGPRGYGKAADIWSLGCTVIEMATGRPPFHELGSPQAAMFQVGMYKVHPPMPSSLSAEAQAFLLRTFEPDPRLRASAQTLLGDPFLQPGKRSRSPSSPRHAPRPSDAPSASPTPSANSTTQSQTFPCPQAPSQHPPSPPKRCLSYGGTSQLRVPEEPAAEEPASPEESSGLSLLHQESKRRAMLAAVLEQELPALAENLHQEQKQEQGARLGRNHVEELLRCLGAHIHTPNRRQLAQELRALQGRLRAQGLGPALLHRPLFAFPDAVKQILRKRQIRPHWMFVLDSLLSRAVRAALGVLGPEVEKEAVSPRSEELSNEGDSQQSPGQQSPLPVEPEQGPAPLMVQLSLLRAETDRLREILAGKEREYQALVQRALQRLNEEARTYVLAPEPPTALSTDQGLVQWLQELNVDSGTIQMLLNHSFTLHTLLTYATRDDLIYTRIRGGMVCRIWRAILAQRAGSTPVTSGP
Summary of the method: as §1

[6] = target: UniProt Q13557
Sequence of UniProt Q13557 (Q13557 whole entry): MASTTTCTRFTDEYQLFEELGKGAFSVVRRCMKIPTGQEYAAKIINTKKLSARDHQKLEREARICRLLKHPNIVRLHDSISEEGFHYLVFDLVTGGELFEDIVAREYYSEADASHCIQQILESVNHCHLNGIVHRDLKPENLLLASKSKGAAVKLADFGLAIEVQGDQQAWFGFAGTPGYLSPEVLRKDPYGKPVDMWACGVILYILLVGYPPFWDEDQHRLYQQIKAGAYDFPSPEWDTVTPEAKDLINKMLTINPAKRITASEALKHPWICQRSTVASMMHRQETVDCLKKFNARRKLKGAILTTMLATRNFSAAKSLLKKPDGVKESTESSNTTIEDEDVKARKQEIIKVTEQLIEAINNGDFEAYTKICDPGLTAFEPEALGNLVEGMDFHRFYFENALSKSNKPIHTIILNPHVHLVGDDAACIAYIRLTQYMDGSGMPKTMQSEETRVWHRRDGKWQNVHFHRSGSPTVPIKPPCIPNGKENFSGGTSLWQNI
Summary of the method: as §1

Row | Compound | pIC50 ([1]; cell material: Lysate mix) | pIC50 ([2]; cell material: Lysate mix) | pIC50 ([3]; cell material: Lysate mix) | pIC50 ([4]; cell material: Lysate mix) | pIC50 [5] | pIC50 ([6]; cell material: Lysate mix) | pIC50 ([3]; cell material: Jurkat cells) | pIC50 ([1]; cell material: Jurkat cells) | pIC50 ([1]; cell material: Jurkat lysate) | pIC50 ([2]; cell material: Jurkat lysate) | pIC50 ([3]; cell material: Jurkat lysate) | pIC50 ([4]; cell material: Jurkat cells) | pIC50 ([4]; cell material: Jurkat lysate) | pIC50 ([6]; cell material: Jurkat cells) | pIC50 ([6]; cell material: Jurkat lysate)
1 | C#CCNC(=O)c1cc(Nc2cc(C)[nH]n2)nc(N2CCN(Cc3ccc(S(=O)(=O)F)cc3)CC2)n1 | < 4.52 | 4.93 | 5.52 | 6.73 | 4.63 | < 4.52 | – | – | – | – | – | – | – | – | –
2 | C#CCNC(=O)c1cc(Nc2cc(C3CC3)[nH]n2)nc(N2CCN(Cc3ccc(S(=O)(=O)F)cc3)CC2)n1 | < 4.52 | 4.9 | 6.28 | 7.06 | < 4.52 | < 4.52 | – | 5.28 | < 4.52 | < 4.52 | 5.64 | 7.04 | 6.25 | 4.9 | < 4.52
3 | CCNC(=O)c1cc(Nc2cc(C)[nH]n2)nc(N2CCN(Cc3ccc(S(=O)(=O)F)cc3)CC2)n1 | < 4.52 | 4.98 | 5.57 | 7.67 | 4.66 | < 4.52 | – | – | – | – | – | – | – | – | –

More lines, main results first:

Row | pIC50 ([1]; cell material: Lysate mix) | pIC50 ([2]; cell material: Lysate mix) | pIC50 ([3]; cell material: Lysate mix) | pIC50 ([4]; cell material: Lysate mix) | pIC50 [5] | pIC50 ([6]; cell material: Lysate mix) | pIC50 ([3]; cell material: Jurkat cells) | Compound | pIC50 ([1]; cell material: Jurkat cells) | pIC50 ([1]; cell material: Jurkat lysate) | pIC50 ([2]; cell material: Jurkat lysate) | pIC50 ([3]; cell material: Jurkat lysate) | pIC50 ([4]; cell material: Jurkat cells) | pIC50 ([4]; cell material: Jurkat lysate) | pIC50 ([6]; cell material: Jurkat cells) | pIC50 ([6]; cell material: Jurkat lysate)
4 | < 4.52 | < 4.52 | < 4.52 | 5.39 | < 4.52 | < 4.52 | – | Cc1cc(Nc2cc(C(=O)NCCNC(=O)OC3CC/C=C/CCC3)nc(N3CCN(Cc4ccc(S(=O)(=O)F)cc4)CC3)n2)n[nH]1 (configuration not stated) | – | – | – | – | – | – | – | –
5 | – | < 4.52 | < 4.52 | 5.3 | < 4.52 | < 4.52 | 5.38 | O=C(NCCNC(=O)c1cc(Nc2cc(C3CC3)[nH]n2)nc(N2CCN(Cc3ccc(S(=O)(=O)F)cc3)CC2)n1)OC1CC/C=C/CCC1 (configuration not stated) | < 4.52 | < 4.52 | < 4.52 | < 4.52 | 6.98 | 5 | < 4.52 | < 4.52
6 | < 4.52 | 4.73 | 6.22 | 6.86 | < 4.52 | < 4.52 | – | CCNC(=O)c1cc(Nc2cc(C3CC3)[nH]n2)nc(N2CCN(Cc3ccc(S(=O)(=O)F)cc3)CC2)n1 | – | – | – | – | – | – | – | –
